Molecules are shown by their SMILES. In brackets after ≈: the same amount, converted by molar mass.

This passage reports IC50 and MIC results from ChEMBL document CHEMBL4725357, “Elucidating the Structural Requirement of Uridylpeptide Antibiotics for Antibacterial Activity” (J Med Chem, 2020).

A short description of assay [1]: Inhibition of Staphylococcus aureus MraY using UDPMurNAc-dansylpentapeptide as substrate incubated for 3 hrs by fluorescence method.
The next assay concerns Pseudomonas aeruginosa. Description: Antibacterial activity against Pseudomonas aeruginosa PAO1 incubated for 18 hrs by CLSI based broth microdilution method. Format: functional.
A short description of assay [2]: Inhibition of Staphylococcus aureus MraY using UDPMurNAc-dansylpentapeptide as substrate incubated for 3 to 4 hrs by fluorescence method.

A word on the IC50: it is the midpoint of a concentration-inhibition curve. A lower IC50 goes with greater potency in that assay. In assay [1], `CCCCCCCCCCCCCCC[C@H](NC(=O)[C@@H](NC(=O)N[C@H](C(=O)O)C(C)C)[C@@H]1CCNC(=N)N1)C(=O)NCCCN[C@H](C(=O)O)[C@H](O[C@@H]1O[C@H](CN)[C@@H](O)[C@H]1O)[C@H]1O[C@@H](n2ccc(=O)[nH]c2=O)[C@H](O)[C@@H]1O` showed an IC50 of 1.1 nM.
The same measure, in the same setting: the result for `CCCCCCCCCCCCCCC[C@H](N)C(=O)NCCCN[C@H](C(=O)O)[C@H](O[C@@H]1O[C@H](CN)[C@@H](O)[C@H]1O)[C@H]1O[C@@H](n2ccc(=O)[nH]c2=O)[C@H](O)[C@@H]1O` reads 2.7 nM.
As usually defined, the MIC is the lowest concentration that inhibits growth of the organism. Low values mean a more susceptible organism, high ones a less susceptible organism. In turn, `CC[C@H](C)[C@H](NC(=O)N[C@@H](Cc1c[nH]c2ccccc12)C(=O)O)C(=O)N[C@H](C(=O)N/C=C1\O[C@@H](n2ccc(=O)[nH]c2=O)[C@H](O)[C@@H]1O)[C@H](C)N(C)C(=O)[C@@H](N)Cc1cccc(O)c1` gave an IC50 in assay [1] of 1.4 nM. This compound also had an MIC in the assay with Pseudomonas aeruginosa of 16 µg/mL (≈ 18.6 µM).
The matching figures for `CC(C)[C@H](NC(=O)N[C@@H](Cc1c[nH]c2ccccc12)C(=O)O)C(=O)N[C@H](C(=O)N/C=C1\O[C@@H](n2ccc(=O)[nH]c2=O)[C@H](O)[C@@H]1O)[C@H](C)N(C)C(=O)[C@@H](N)Cc1cccc(O)c1`: 1.5 nM and 16 µg/mL (≈ 18.9 µM).
`CC(=O)N[C@H](C(=O)N/C=C1\O[C@@H](n2ccc(=O)[nH]c2=O)[C@H](O)[C@@H]1O)[C@H](C)N(C)C(=O)[C@@H](N)Cc1cccc(O)c1` gave an IC50 in assay [1] above 1000 nM.
Turning to `C[C@@H]([C@H](NC(=O)[C@H](Cc1ccc(O)cc1)NC(=O)N[C@@H](Cc1c[nH]c2ccccc12)C(=O)O)C(=O)N/C=C1\O[C@@H](n2ccc(=O)[nH]c2=O)[C@H](O)[C@@H]1O)N(C)C(=O)[C@@H](N)Cc1cccc(O)c1`, the IC50 in assay [1] amounted to 0.22 nM. In the assay on Pseudomonas aeruginosa, inhibition of growth (MIC) required 16 µg/mL (≈ 17.5 µM).
`C[C@H](N)C(=O)N(C)[C@@H](C)[C@H](NC(=O)[C@H](C)NC(=O)N[C@@H](Cc1c[nH]c2ccccc12)C(=O)O)C(=O)N/C=C1/CC(O)[C@H](n2ccc(=O)[nH]c2=O)O1` (some centres not stated): half-maximal inhibition in assay [2] (IC50) required 22 nM.
In assay [1], `C[C@@H]([C@H](NC(=O)[C@H](Cc1ccccc1)NC(=O)N[C@@H](Cc1c[nH]c2ccccc12)C(=O)O)C(=O)N/C=C1\O[C@@H](n2ccc(=O)[nH]c2=O)[C@H](O)[C@@H]1O)N(C)C(=O)[C@@H](N)Cc1cccc(O)c1` gave an IC50 of 0.6 nM. Also, in the assay with Pseudomonas aeruginosa, the lowest concentration to inhibit growth (MIC) was 16 µg/mL (≈ 17.9 µM).
Consider `C[C@@H](O)[C@H](NC(=O)N[C@@H](Cc1c[nH]c2ccccc12)C(=O)O)C(=O)N[C@H](C(=O)N/C=C1\O[C@@H](n2ccc(=O)[nH]c2=O)[C@H](O)[C@@H]1O)[C@H](C)N(C)C(=O)[C@@H](N)Cc1cccc(O)c1`, for which, in assay [1], the IC50 came to 1.8 nM. In the assay on Pseudomonas aeruginosa, this compound registered an MIC of 32 µg/mL (≈ 37.7 µM).
For `C[C@H](NC(=O)N[C@@H](Cc1c[nH]c2ccccc12)C(=O)O)C(=O)N[C@H](C(=O)N/C=C1\O[C@@H](n2ccc(=O)[nH]c2=O)[C@H](O)[C@@H]1O)[C@H](C)N(C)C(=O)[C@@H](N)Cc1cccc(O)c1` the same measures were 1.3 nM and 64 µg/mL (≈ 78.1 µM).
For the compound `CC(C)C[C@H](NC(=O)N[C@@H](Cc1c[nH]c2ccccc12)C(=O)O)C(=O)N[C@H](C(=O)N/C=C1\O[C@@H](n2ccc(=O)[nH]c2=O)[C@H](O)[C@@H]1O)[C@H](C)N(C)C(=O)[C@@H](N)Cc1cccc(O)c1`, inhibition in assay [1] was half-maximal at 4 nM (IC50). Besides, 32 µg/mL (≈ 37.1 µM) was the least that counted as inhibitory in the assay with Pseudomonas aeruginosa (MIC).
For `CSCC[C@H](NC(=O)N[C@@H](Cc1c[nH]c2ccccc12)C(=O)O)C(=O)N[C@H](C(=O)N/C=C1\O[C@@H](n2ccc(=O)[nH]c2=O)[C@H](O)[C@@H]1O)[C@H](C)N(C)C(=O)[C@@H](N)Cc1cccc(O)c1` the same measures were 1 nM and 32 µg/mL (≈ 36.4 µM).
The compound `CCCCCCCCCCCCCCCC(=O)N[C@@H](C)C(=O)N[C@H](C(=O)N/C=C1\O[C@@H](n2ccc(=O)[nH]c2=O)[C@H](O)[C@@H]1O)[C@H](C)N(C)C(=O)[C@@H](N)Cc1cccc(O)c1` gave an IC50 in assay [1] above 1000 nM.
In turn, `C[C@@H]([C@H](NC(=O)[C@H](Cc1c[nH]c2ccccc12)NC(=O)N[C@@H](Cc1c[nH]c2ccccc12)C(=O)O)C(=O)N/C=C1\O[C@@H](n2ccc(=O)[nH]c2=O)[C@H](O)[C@@H]1O)N(C)C(=O)[C@@H](N)Cc1cccc(O)c1` came in with an IC50 in assay [1] of 0.44 nM. The same compound returned an MIC in the assay with Pseudomonas aeruginosa of 32 µg/mL (≈ 34.2 µM).
For `C[C@@H]([C@H](NC(=O)[C@H](CS)NC(=O)N[C@@H](Cc1c[nH]c2ccccc12)C(=O)O)C(=O)N/C=C1\O[C@@H](n2ccc(=O)[nH]c2=O)[C@H](O)[C@@H]1O)N(C)C(=O)[C@@H](N)Cc1cccc(O)c1` the same measures were 1.6 nM and 128 µg/mL (≈ 150 µM).
In assay [1], `C[C@@H]([C@H](NC(=O)[C@H](CC(=O)O)NC(=O)N[C@@H](Cc1c[nH]c2ccccc12)C(=O)O)C(=O)N/C=C1\O[C@@H](n2ccc(=O)[nH]c2=O)[C@H](O)[C@@H]1O)N(C)C(=O)[C@@H](N)Cc1cccc(O)c1` had an IC50 of 7.6 nM. In the assay on Pseudomonas aeruginosa, this compound yielded an MIC above 128 µg/mL.
`C[C@@H]([C@H](NC(=O)[C@H](CO)NC(=O)N[C@@H](Cc1c[nH]c2ccccc12)C(=O)O)C(=O)N/C=C1\O[C@@H](n2ccc(=O)[nH]c2=O)[C@H](O)[C@@H]1O)N(C)C(=O)[C@@H](N)Cc1cccc(O)c1`: the IC50 in assay [1] was 1.8 nM. The compound also had an MIC with Pseudomonas aeruginosa above 128 µg/mL.
For `C[C@@H]([C@H](NC(=O)[C@H](CCCNC(=N)N)NC(=O)N[C@@H](Cc1c[nH]c2ccccc12)C(=O)O)C(=O)N/C=C1\O[C@@H](n2ccc(=O)[nH]c2=O)[C@H](O)[C@@H]1O)N(C)C(=O)[C@@H](N)Cc1cccc(O)c1` the same measures were 3.4 nM and above 128 µg/mL.
The matching figures for `C[C@@H]([C@H](NC(=O)[C@H](CCC(=O)O)NC(=O)N[C@@H](Cc1c[nH]c2ccccc12)C(=O)O)C(=O)N/C=C1\O[C@@H](n2ccc(=O)[nH]c2=O)[C@H](O)[C@@H]1O)N(C)C(=O)[C@@H](N)Cc1cccc(O)c1`: 3.3 nM and 128 µg/mL (≈ 146 µM).
Turning to `C[C@@H]([C@H](NC(=O)[C@H](CCCCN)NC(=O)N[C@@H](Cc1c[nH]c2ccccc12)C(=O)O)C(=O)N/C=C1\O[C@@H](n2ccc(=O)[nH]c2=O)[C@H](O)[C@@H]1O)N(C)C(=O)[C@@H](N)Cc1cccc(O)c1`, in assay [1], the IC50 was determined as 1.8 nM. In the assay with Pseudomonas aeruginosa, the minimum inhibitory concentration (MIC) was above 128 µg/mL.
The matching figures for `C[C@@H]([C@H](NC(=O)[C@H](CCC(N)=O)NC(=O)N[C@@H](Cc1c[nH]c2ccccc12)C(=O)O)C(=O)N/C=C1\O[C@@H](n2ccc(=O)[nH]c2=O)[C@H](O)[C@@H]1O)N(C)C(=O)[C@@H](N)Cc1cccc(O)c1`: 1.3 nM and 128 µg/mL (≈ 146 µM).
Compound `CC(=O)N[C@@H](C)C(=O)N[C@H](C(=O)N/C=C1\O[C@@H](n2ccc(=O)[nH]c2=O)[C@H](O)[C@@H]1O)[C@H](C)N(C)C(=O)[C@@H](N)Cc1cccc(O)c1` had an IC50 in assay [1] above 1000 nM.
Consider `C[C@@H]([C@H](NC(=O)[C@H](CC(N)=O)NC(=O)N[C@@H](Cc1c[nH]c2ccccc12)C(=O)O)C(=O)N/C=C1\O[C@@H](n2ccc(=O)[nH]c2=O)[C@H](O)[C@@H]1O)N(C)C(=O)[C@@H](N)Cc1cccc(O)c1`, for which, in assay [1], the IC50 came to 2.1 nM. Moreover, the MIC with Pseudomonas aeruginosa was above 128 µg/mL.
The matching figures for `C[C@@H]([C@H](NC(=O)[C@H](Cc1cnc[nH]1)NC(=O)N[C@@H](Cc1c[nH]c2ccccc12)C(=O)O)C(=O)N/C=C1\O[C@@H](n2ccc(=O)[nH]c2=O)[C@H](O)[C@@H]1O)N(C)C(=O)[C@@H](N)Cc1cccc(O)c1`: 2.8 nM and above 128 µg/mL.
Take `C[C@@H]([C@H](NC(=O)CNC(=O)N[C@@H](Cc1c[nH]c2ccccc12)C(=O)O)C(=O)N/C=C1\O[C@@H](n2ccc(=O)[nH]c2=O)[C@H](O)[C@@H]1O)N(C)C(=O)[C@@H](N)Cc1cccc(O)c1`: in assay [1], the IC50 was determined as 4.2 nM. For the same compound, the MIC against Pseudomonas aeruginosa is above 128 µg/mL.
The matching figures for `C[C@@H]([C@H](NC(=O)[C@@H]1CCCN1C(=O)N[C@@H](Cc1c[nH]c2ccccc12)C(=O)O)C(=O)N/C=C1\O[C@@H](n2ccc(=O)[nH]c2=O)[C@H](O)[C@@H]1O)N(C)C(=O)[C@@H](N)Cc1cccc(O)c1`: above 500 nM and above 128 µg/mL.
As to `CC(C)C[C@H](NC(=O)[C@@H](NC(=O)N[C@H](C(=O)O)C(C)C)[C@@H]1CCNC(=N)N1)C(=O)NCCCN[C@H](C(=O)O)[C@H](O[C@@H]1O[C@H](CN)[C@@H](O)[C@H]1O)[C@H]1O[C@@H](n2ccc(=O)[nH]c2=O)[C@H](O)[C@@H]1O` [MURAMYCIN D2], half-maximal inhibition in assay [1] (IC50) required 2.8 nM.
